Literature values, collected in the PKSmart pharmacokinetics tables (Seal et al. 2025).
Where a SMILES comes first, the peptide text is derived from it. [ ]: non-standard residue; d: D form. pGlu = O=C1CC[CH](C(=O)O)N1; Thz = O=C(O)[CH]1CSCN1

Assay: Lombardo, Berellini, Obach 2018, Drug Metab Dispos 46:1466, doi 10.1124/dmd.118.082966
Conditions: human; for MRT / Vd / clearance / half-life: in vivo, iv; for fraction unbound: plasma

SMILES | MRT [h] | Vd [L/kg] | clearance [mL/min/kg] | half-life [h] | fraction unbound
CN(C)N=Nc1ccc(C(=O)O)cc1 | 3 | 0.25 | 1.3 | 2.5 | –
O=P(O)(O)OC(Cn1cncn1)(Cn1cncn1)c1ccc(F)cc1F | 2 | 0.15 | 1.3 | 2.1 | 0.042
Cc1cccc(Cl)c1C(=O)NC(Cc1ccc(NC(=O)c2c(Cl)cncc2Cl)cc1)C(=O)O (stereo not drawn) | 1.3 | 0.3 | 3.7 | 3.3 | 0.1
Cc1c[nH]c2c(O)cc3c(c12)[C@H](CCl)CN3C(=O)c1cc2cc(NC(=O)Nc3ccc4[nH]c(C(=O)N5C[C@@H](CCl)c6c5cc(O)c5[nH]cc(C)c65)cc4c3)ccc2[nH]1 | 1.7 | 0.05 | 0.5 | 1.6 | –
CNCc1ccc(-c2[nH]c3cc(F)cc4c3c2CCNC4=O)cc1 | 12.7 | 3.28 | 4.31 | 16.6 | –
O=C1NC(c2ccccc2)(c2ccccc2)C(=O)N1COP(=O)(O)O | 0.17 | 0.06 | 3.5 | 0.16 | 0.05
CC(C=Cc1c(C)c(O)c2ccccc2c1O)=CCC[C@H](C)CCC[C@H](C)CCCC(C)C | 3.3 | 0.32 | 1.6 | 7.3 | –
Cc1c(CN(C)C(=O)C=Cc2cnc3c(c2)CCC(=O)N3)oc2ccccc12 | 8.4 | 0.43 | 0.9 | 6.4 | –
CN(C)C[C@H](c1ccc(O)cc1)C1(O)CCCCC1 | 11.8 | 3.5 | 4.9 | 8.4 | 0.7
CN[C@@H]1C[C@H]2OC(C)([C@@H]1OC)n1c3ccccc3c3c4c(c5c6ccccc6n2c5c31)C(=O)N[C@@H]4O | 680 | 0.15 | 0.0037 | 790 | 0.0022
CCOc1ccccc1O[C@H](c1ccccc1)[C@H]1CNCCO1 | 13 | 0.65 | 0.82 | 10 | –
C1COC(NC(C2CC2)C2CC2)=N1 | 10.6 | 4.5 | 7.1 | 8.3 | 0.9
O=C(c1ccc(OCCN2CCCCC2)cc1)c1c(-c2ccc(O)cc2)sc2cc(O)ccc12 | 11.6 | 7.5 | – | 12.1 | 0.05
O=C(O)C1C[C@@H](C2CCCCC2)CN1C(=O)CP(=O)(O)CCCCc1ccccc1 (stereo partly drawn) | 6.8 | 0.13 | 0.32 | 9.4 | –
COc1ccsc1CNCC[C@@]1(c2ccccn2)CCOC2(CCCC2)C1 | 1.9 | 0.78 | 6.89 | 1.8 | –
NCCCCC(NC(CCc1ccccc1)C(=O)O)C(=O)N1CCCC1C(=O)O (stereo not drawn) | – | – | 1.2 | – | –
C[C@H](CCC(=O)O)[C@H]1CC[C@H]2[C@@H]3[C@H](O)C[C@@H]4C[C@H](O)CC[C@]4(C)[C@H]3CC[C@]12C | 0.57 | 0.19 | 5.7 | 1.42 | –
COC(=O)C1[C@@H](O)CC[C@H]2CN3CCc4c([nH]c5ccccc45)[C@@H]3C[C@@H]12 (stereo partly drawn) | 0.5 | 0.48 | 14.6 | 1.5 | –

SMILES | MRT [h] | Vd [L/kg] | clearance [mL/min/kg] | half-life [h] | fraction unbound
Cn1c(NCCN(CCO)CCCc2ccc([N+](=O)[O-])cc2)cc(=O)n(C)c1=O | 1.56 | 1.96 | 20.9 | 1.52 | 0.09
NNC(=O)c1ccncc1 | 1.8 | 0.82 | 7.4 | – | 1
CN(C)C(=O)CCS[C@H](SCCC(=O)O)c1cccc(/C=C/c2ccc3ccc(Cl)cc3n2)c1 | 2.7 | 0.11 | 0.68 | 2.3 | 0.0004
CC(=O)O[C@H]1C[C@@H]2CC[C@@H]3[C@H](CC[C@@]4(C)[C@H]3C[C@H]([N+]3(C)CCCCC3)[C@@H]4OC(C)=O)[C@@]2(C)C[C@@H]1N1CCCCC1 | 1.1 | 0.3 | 4.5 | 1.4 | 0.25
CN1C(=O)CC[C@H]1c1cccnc1 | 21 | 1.1 | 0.89 | 17 | –
COC(=O)Nc1nc2cc(C(=O)c3ccccc3)ccc2[nH]1 | 1.3 | 1.2 | 15 | 1.1 | –
CCCC[S@](=N)(=O)CCC(N)C(=O)O (stereo partly drawn) | 1.9 | 0.26 | 2.28 | 1.68 | –
O=C1CCC(C(=O)N2CSCC2C(=O)O)N1 (stereo not drawn) ([pGlu]-[Thz]-OH; configuration not given here) | 4.5 | 0.31 | 1.16 | 3.8 | 0.96
C[C@@H]1C[C@H]2[C@H]3CC=C4CC(=O)C=C[C@]4(C)[C@@]3(Cl)[C@@H](O)C[C@]2(C)[C@@]1(OC(=O)c1ccco1)C(=O)CCl | 2.9 | 2.2 | 12.7 | 4.4 | –
CN(C)[C@@H]1C(O)=C(C(N)=O)C(=O)[C@@]2(O)C(O)=C3C(=O)c4c(O)cccc4[C@@](C)(O)[C@H]3[C@H](O)[C@@H]12 | 12 | 1.7 | 2 | 10 | 0.9
O=S(=O)(Nc1ccccc1)c1cccc(/C=C/C(O)=NO)c1 | 0.6 | 0.8 | 23.6 | 1.6 | 0.06
CN1CCN(c2ncc(-c3cc(Cl)cc(Cl)c3Cl)c(N)n2)CC1 | 12.3 | 15.3 | 20.9 | 11 | –
O=C1c2c(c3c4ccc(O)cc4n([C@@H]4O[C@H](CO)[C@@H](O)[C@H](O)[C@H]4O)c3c3[nH]c4cc(O)ccc4c23)C(=O)N1NC(CO)CO | 0.95 | 1.45 | 25.3 | 4.01 | –
CC(=O)[C@]1(O)Cc2c(O)c3c(c(O)c2[C@@H](O[C@H]2C[C@H](N4CC4)[C@H](OS(C)(=O)=O)[C@H](C)O2)C1)C(=O)c1ccccc1C3=O | 2.09 | 2.95 | 23.5 | 7.33 | 0.006
Nc1ccc(O)c(C(=O)O)c1 | 0.59 | 0.33 | 9.3 | 0.61 | 0.39
COC(=O)C1(OC(=O)c2cncn2[C@H](C)c2ccccc2)CC1 | – | – | 50.1 | 0.24 | –
CCN1CCN(C(=O)NC(C(=O)N[C@]2(OC)C(=O)N3C(C(=O)O)=C(CSc4nnnn4C)CS[C@@H]32)[C@H](C)O)C(=O)C1=O (stereo partly drawn) | 2.9 | 0.19 | 1.1 | 1.9 | –
Nc1nc(-n2cc(C(=O)O)c(=O)c3cc(F)c(N4CC(O)C4)c(Cl)c32)c(F)cc1F | 2.5 | 0.35 | 2.33 | 2.1 | –
